Data published in patent US10106627B2, “Process for the preparation of polymeric biosurfactants” (priority 2014, dated 2018).

Legend:
[1] = test system: Pseudomonas aeruginosa MTCC 2453; test: Microtiter broth dilution MIC; type: cell-based; conditions: Pseudomonas aeruginosa MTCC 2453, 24 h, 35° C.
Protocol: (§1) The antimicrobial activity of Microsan and M-EPS-Au-NP was determined using the microtiter broth dilution method [Kumar, C. G. and Mamidyala, S. K. (2011) Coll. Surf B: Biointerf. 84, 462-466]. Different bacterial pathogens (10^7 cfu ml^−1 cells) were inoculated in 100 μl of Muller-Hinton broth. Different concentrations of Microsan, M-EPS-Au-NP and Brevisan were added to each strain and incubated for 24 h at 35° C. After incubation, 40 μl of p-iodonitrotetrazolium (INT, Sigma) dye (0.02%, 20 mg INT dissolved in 100 ml of 40% dimethyl formamide was added to each well and incubated for 2 h. The reduction of p-iodonitrotetrazolium was spectroscopically measured at 450 nm using TRIAD multimode reader (Dynex Technologies, Inc., Chantilly, Va.) to determine the minimum inhibitory concentration (MIC) values. Commercially available surfactin (CAS 24730-31-2; Sigma-Aldrich) and laminarin (CAS No 9008-22-4; Sigma-Aldrich) used as positive controls were run in parallel for comparison. The MIC values of Microsan and M-EPS-Au-NP observed against the tested bacterial strains are shown in Table 3.

[2] = test system: Escherichia coli MTCC 739; test: Microtiter broth dilution MIC; type: cell-based; conditions: Escherichia coli MTCC 739, 24 h, 35° C.
Protocol: as §1

[3] = test system: Klebsiella planticola MTCC 530; test: Microtiter broth dilution MIC; type: cell-based; conditions: Klebsiella planticola MTCC 530, 24 h, 35° C.
Protocol: as §1

[4] = test system: Staphylococcus aureus MLS16 MTCC 2940; test: Microtiter broth dilution MIC; type: cell-based; conditions: Staphylococcus aureus MLS16 MTCC 2940, 24 h, 35° C.
Protocol: as §1

[5] = test system: Bacillus subtilis MTCC 121; test: Microtiter broth dilution MIC; type: cell-based; conditions: Bacillus subtilis MTCC 121, 24 h, 35° C.
Protocol: as §1

[6] = test system: Staphylococcus aureus MTCC 96; test: Microtiter broth dilution MIC; type: cell-based; conditions: Staphylococcus aureus MTCC 96, 24 h, 35° C.
Protocol: as §1

[7] = test system: Micrococcus luteus MTCC 2470; test: Microtiter broth dilution MIC; type: cell-based; conditions: Micrococcus luteus MTCC 2470, 24 h, 35° C.
Protocol: as §1

[8] = Emulsification index (EI24); type: physicochemical; conditions: 24 h
Protocol: (§2) The surface tension of the purified Microsan from Microbacterium sp. strain BS-2 and Brevisan from Brevibacillus sp. strain BS-207 was measured by Wilhelmy plate method using a Du-Nouy K100MK2 Processor Tensiometer (Krüss, Hamburg, Germany) which reduced the surface tension of water from 72 to 31.2 mN m^−1. The interfacial tension value was measured by Du-Nouy ring method and it was determined as 25.7 mN m. The critical micelle concentration (CMC) was measured by plotting the concentration of EPS as a function of surface tension. The CMC is the point where the slope of the curve abruptly changed was determined as 75 mg l^−1. The emulsification index (EI24) was determined by the addition of 4 ml of culture supernatant to 6 ml of various hydrocarbons (N-Hexadecane, tridecane, hexane, toluene and xylene) and oils (mineral oil and soybean oil) and the mixtures were vortexed for 2 min and allowed to stand for 24 h. The emulsification index (EI24) values expressed as the percentage of height of emulsified layer to the height of total liquid column.

[9] = Critical micelle concentration; type: physicochemical
Protocol: The bacterial strains producing biosurfactants were isolated from the petroleum-contaminated soil sample collected from Mupkal, Nizamabad, Andhra Pradesh, India (latitude 18.90° N and longitude 78.36° E). The soil sample was enriched by placing 1.0 g of soil sample in 100 ml of mineral salts medium supplemented with N-hexadecane (1%, v/v) as a sole carbon source for three weeks. The enriched sample was serially diluted and then plated on the mineral salts agar plates overlaid with N-hexadecane which acted as a sole carbon source. The colonies that appeared on the plates upon incubation at 37° C. for 72 h were purified for 2-3 times on nutrient agar plates. The isolated pure microorganisms were cultured in liquid mineral salts medium at 37° C. for 72 h. The cells were separated by centrifugation and the cell-free supernatant was measured for the reduction in surface tension values by Wilhelmy plate method using a Du-Nouy K100MK2 Processor Tensiometer (Krüss, Hamburg, Germany). The concentration series was generated automatically with a computer-controlled Dosimat (Metrohm AG, Switzerland). […] The critical micelle concentration (CMC) was measured by plotting the concentration of surfactant as a function of surface tension, and the CMC was taken as the point where the slope of the curve abruptly changed. […]

IL-6 in RAW 264.7 cells = test: LPS-induced IL-6 ELISA in RAW 264.7 cells; type: cell-based, mouse; conditions: 50 μg ml^−1; LPS 100 ng ml^−1 24 h; LPS alone 190.9
Protocol: The effect of Brevisan, Microsan and M-EPS-Au-NP on the release of proinflammatory cytokines, TNF-α and IL-6, was measured using ELISA kits (Biosource International, Camarillo, Calif., USA). In independent experiments, the RAW-264.7 cells were treated with different concentrations (1, 10, 50 and 100 μg ml^−1) of Brevisan, Microsan and M-EPS-Au-NP and then stimulated with 100 ng ml^−1 of LPS. The supernatants were harvested after 24 h and the concentrations of TNF-α and IL-6 was measured using an ELISA kit according to the manufacturer's instructions.

[10] = Interfacial tension, Du-Nouy ring method; type: physicochemical
Protocol: as §2

β-D-glucuronyl-(1-2)-D-mannosyl-(1-4)-D-glucose [Microsan]
Minimum inhibitory concentration (MIC) [1]: >300 µg/mL | Minimum inhibitory concentration (MIC) [2]: >300 µg/mL | Minimum inhibitory concentration (MIC) [3]: 9.37 µg/mL | Minimum inhibitory concentration (MIC) [4]: 4.68 µg/mL | Minimum inhibitory concentration (MIC) [5]: 4.68 µg/mL | Minimum inhibitory concentration (MIC) [6]: 18.75 µg/mL | Minimum inhibitory concentration (MIC) [7]: >300 µg/mL | emulsification index (EI24) ([8]; N-hexadecane): 67% | emulsification index (EI24) ([8]; hexane): 83.7% | emulsification index (EI24) ([8]; mineral oil): 71.9% | emulsification index (EI24) ([8]; soybean oil): 63% | emulsification index (EI24) ([8]; toluene): 74.9% | emulsification index (EI24) ([8]; tridecane): 77% | emulsification index (EI24) ([8]; xylene): 66.89% | critical micelle concentration (CMC) [9]: 75 mg/L | IL-6 production after treatment (IL-6 in RAW 264.7 cells): 90.01 µg/mL | interfacial tension [10]: 25.7 mN m
